Substitutions are numbered along the chain they refer to. Where two headings read alike, the source gives them in different places.
Key:
[1] = biological target: dehydrogenase/reductase (SDR family) member 4 (Homo sapiens, UniProt Q9BTZ2); experiment: Reduction of FAL and GGAL by dehydrogenase/reductase; assay type: biochemical
[2] = biological target: dicarbonyl-xylulose reductase (Homo sapiens, UniProt Q7Z4W1); experiment: Reduction of FAL and GGAL by dicarbonyl-xylulose reductase; assay type: biochemical
Chain of dicarbonyl-xylulose reductase (Q7Z4W1 whole entry): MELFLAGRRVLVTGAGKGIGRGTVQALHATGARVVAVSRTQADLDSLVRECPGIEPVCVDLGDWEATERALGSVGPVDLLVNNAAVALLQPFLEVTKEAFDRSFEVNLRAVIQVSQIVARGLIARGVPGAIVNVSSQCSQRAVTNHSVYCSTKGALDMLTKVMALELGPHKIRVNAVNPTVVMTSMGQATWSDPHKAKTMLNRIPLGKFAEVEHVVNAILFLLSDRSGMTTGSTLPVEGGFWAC

AKR 1C1 = biological target: T1, AKR 1C1 (Homo sapiens, UniProt Q04828); experiment: Kinetic constants for FAL and GGAL reduction, AKR1C1; assay type: biochemical
T1 sequence (Q04828 1-323): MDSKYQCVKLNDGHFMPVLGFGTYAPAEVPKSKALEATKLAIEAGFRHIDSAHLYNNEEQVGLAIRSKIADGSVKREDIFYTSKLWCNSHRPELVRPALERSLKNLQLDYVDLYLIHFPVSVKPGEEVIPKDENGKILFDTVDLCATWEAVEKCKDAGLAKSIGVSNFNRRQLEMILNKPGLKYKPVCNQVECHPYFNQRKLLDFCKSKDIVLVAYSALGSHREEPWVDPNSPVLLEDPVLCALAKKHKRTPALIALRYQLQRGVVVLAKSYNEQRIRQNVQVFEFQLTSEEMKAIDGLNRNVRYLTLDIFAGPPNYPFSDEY

[3] = system: low-MW FAL-R and GGAL-R from liver; experiment: FAL-R/GGAL-R activity of low-MW reductase from rat liver; assay type: biochemical; settings: liver low-MW reductase
AKR 1A1 = biological target: T2, AKR 1A1 (Homo sapiens, UniProt P14550); experiment: Kinetic constants for FAL and GGAL reduction, AKR1A1; assay type: biochemical
T2 sequence (P14550 1-325): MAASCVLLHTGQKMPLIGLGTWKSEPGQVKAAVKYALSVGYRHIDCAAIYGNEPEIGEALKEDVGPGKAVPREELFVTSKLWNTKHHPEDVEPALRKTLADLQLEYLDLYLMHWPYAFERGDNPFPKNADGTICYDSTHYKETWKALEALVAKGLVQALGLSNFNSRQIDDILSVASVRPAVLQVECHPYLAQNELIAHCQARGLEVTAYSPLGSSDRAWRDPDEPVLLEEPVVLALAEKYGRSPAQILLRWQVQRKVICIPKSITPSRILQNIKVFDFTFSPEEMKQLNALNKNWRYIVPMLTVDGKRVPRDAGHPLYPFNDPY

AKR 1C2 = biological target: T3, AKR 1C2 (Homo sapiens, UniProt P52895); experiment: Kinetic constants for FAL and GGAL reduction, AKR1C2; assay type: biochemical
T3 sequence (P52895 1-323): T1 sequence (Q04828 1-323) with T38V, R47H, L54V, C87S, V151M, R170H, Q172L

[4] = biological target: microsomal FAL-DH and GGAL-DH (Rattus norvegicus, UniProt P30839); experiment: NAD+-linked FAL-DH/GGAL-DH activity of solubilized hepatic microsomes; assay type: biochemical; settings: solubilized hepatic microsomes, NAD+-linked oxidation
Chain of microsomal FAL-DH and GGAL-DH (P30839 whole entry): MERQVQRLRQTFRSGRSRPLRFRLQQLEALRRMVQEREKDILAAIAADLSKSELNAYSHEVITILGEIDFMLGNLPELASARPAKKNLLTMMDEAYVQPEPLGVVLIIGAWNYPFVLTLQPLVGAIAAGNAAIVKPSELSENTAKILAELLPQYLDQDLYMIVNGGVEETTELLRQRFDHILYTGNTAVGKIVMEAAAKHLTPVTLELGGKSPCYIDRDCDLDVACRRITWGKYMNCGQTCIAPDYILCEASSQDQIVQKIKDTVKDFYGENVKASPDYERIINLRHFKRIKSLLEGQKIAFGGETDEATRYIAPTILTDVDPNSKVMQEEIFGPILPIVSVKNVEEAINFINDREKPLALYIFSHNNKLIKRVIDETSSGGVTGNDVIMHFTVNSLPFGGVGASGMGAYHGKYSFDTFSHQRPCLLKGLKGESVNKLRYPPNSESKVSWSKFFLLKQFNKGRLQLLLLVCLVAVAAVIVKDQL

human AKR 1B1 = settings: cited from earlier work
[5] = biological target: T4, low-MW FAL-R and GGAL-R from stomach, lung and colon (Rattus norvegicus, UniProt D3ZF77); experiment: FAL-R/GGAL-R activity of low-MW reductases from rat stomach, lung and colon; assay type: biochemical; settings: extra-hepatic enzymes (stomach, lung, colon)
T4 sequence (D3ZF77 1-324): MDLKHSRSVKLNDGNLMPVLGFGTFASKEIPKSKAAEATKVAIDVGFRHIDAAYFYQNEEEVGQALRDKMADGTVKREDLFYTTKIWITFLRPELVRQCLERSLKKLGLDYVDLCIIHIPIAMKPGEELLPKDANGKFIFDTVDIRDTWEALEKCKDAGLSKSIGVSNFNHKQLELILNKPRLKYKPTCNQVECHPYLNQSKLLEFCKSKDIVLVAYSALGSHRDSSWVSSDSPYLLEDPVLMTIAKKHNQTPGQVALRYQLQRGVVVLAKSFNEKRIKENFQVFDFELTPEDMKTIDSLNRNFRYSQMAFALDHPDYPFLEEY

[6] = biological target: human carbonyl reductase 1 (Homo sapiens, UniProt P16152); experiment: Reduction of FAL and GGAL by carbonyl reductase 1; assay type: biochemical
Chain of human carbonyl reductase 1 (P16152 whole entry): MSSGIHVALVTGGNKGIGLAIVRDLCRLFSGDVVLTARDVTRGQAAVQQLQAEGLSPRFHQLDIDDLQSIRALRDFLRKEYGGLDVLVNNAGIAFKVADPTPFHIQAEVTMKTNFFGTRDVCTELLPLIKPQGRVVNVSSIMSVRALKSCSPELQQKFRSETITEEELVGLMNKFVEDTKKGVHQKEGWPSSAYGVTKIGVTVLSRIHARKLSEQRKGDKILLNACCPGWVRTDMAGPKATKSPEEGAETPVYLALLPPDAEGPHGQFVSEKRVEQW

[7] = biological target: T5, purified hepatic FAL-R (AKR1C9) (Rattus norvegicus, UniProt P23457); experiment: Reductase activity of hepatic low-MW FAL-R purified to homogeneity; settings: purified liver enzyme
T5 sequence (P23457 1-322): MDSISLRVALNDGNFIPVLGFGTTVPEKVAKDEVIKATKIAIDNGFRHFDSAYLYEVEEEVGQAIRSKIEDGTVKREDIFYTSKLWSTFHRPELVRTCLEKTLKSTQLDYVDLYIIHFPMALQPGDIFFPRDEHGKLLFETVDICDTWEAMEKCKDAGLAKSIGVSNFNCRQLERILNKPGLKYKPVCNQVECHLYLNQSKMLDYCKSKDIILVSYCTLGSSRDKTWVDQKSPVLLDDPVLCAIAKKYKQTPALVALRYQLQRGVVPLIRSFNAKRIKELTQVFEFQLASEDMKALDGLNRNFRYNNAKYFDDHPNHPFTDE

AKR1C15 [8] = biological target: T6, AKR1C15 (Rattus norvegicus, UniProt D3ZF77); settings: NADPH-linked reduction; reported values; cited from earlier work
human AKR 1B10 = settings: 0.1 M potassium phosphate pH 7.4, 0.1 mM NADPH; cited from earlier work
AKR 1C3 = biological target: T7, AKR 1C3 (Homo sapiens, UniProt P42330); experiment: Kinetic constants for FAL and GGAL reduction, AKR1C3; assay type: biochemical; settings: for Km / kcat: 0.1 M potassium phosphate pH 7.4, 0.1 mM NADPH
T7 sequence (P42330 1-323): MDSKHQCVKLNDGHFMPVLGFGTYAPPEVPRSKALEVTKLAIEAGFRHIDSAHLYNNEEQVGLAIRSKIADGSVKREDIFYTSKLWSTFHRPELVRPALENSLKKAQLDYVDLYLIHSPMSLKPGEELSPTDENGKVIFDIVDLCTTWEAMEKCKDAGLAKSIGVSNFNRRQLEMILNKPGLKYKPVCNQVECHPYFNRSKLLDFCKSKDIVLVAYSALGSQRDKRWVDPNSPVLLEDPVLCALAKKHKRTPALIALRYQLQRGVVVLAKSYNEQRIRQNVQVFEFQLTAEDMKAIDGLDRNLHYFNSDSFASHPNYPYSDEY

AKR 1C4 = biological target: T8, AKR 1C4 (Homo sapiens, UniProt P17516); experiment: Kinetic constants for FAL and GGAL reduction, AKR1C4; assay type: biochemical; settings: 0.1 M potassium phosphate pH 7.4, 0.1 mM NADPH
T8 sequence (P17516 1-323): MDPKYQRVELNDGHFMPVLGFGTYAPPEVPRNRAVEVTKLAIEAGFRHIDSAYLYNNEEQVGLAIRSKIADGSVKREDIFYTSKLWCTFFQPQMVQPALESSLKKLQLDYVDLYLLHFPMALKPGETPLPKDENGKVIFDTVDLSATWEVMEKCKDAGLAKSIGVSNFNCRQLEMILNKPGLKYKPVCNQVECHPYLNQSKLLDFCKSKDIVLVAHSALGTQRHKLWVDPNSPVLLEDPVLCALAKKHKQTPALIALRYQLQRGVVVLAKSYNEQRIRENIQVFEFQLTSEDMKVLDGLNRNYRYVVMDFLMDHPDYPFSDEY

AKR1C15 [9] = biological target: T6, AKR1C15; experiment: Reduction of isoprenyl aldehydes by AKR1C15; assay type: biochemical; settings: NADPH-linked reduction
[10] = 0.1 M potassium phosphate pH 7.4, 0.1 mM NADPH
[11] = calculated from the specific activity with 10 μM GGAL

Chain of dehydrogenase/reductase (SDR family) member 4 (Q9BTZ2 whole entry): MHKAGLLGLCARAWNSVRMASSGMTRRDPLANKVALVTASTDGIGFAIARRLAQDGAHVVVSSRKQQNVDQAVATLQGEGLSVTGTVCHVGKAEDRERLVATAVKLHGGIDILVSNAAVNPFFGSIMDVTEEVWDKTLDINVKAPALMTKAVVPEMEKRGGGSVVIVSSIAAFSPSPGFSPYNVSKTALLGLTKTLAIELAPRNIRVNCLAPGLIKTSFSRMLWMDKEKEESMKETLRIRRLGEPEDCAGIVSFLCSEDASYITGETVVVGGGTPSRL

Row | reduction by the enzyme [1] | reduction by the enzyme [2] | Km [3] | Km [4] | Vmax [4] | Km [5] | reduction by the enzyme [6] | Km [7] | Km (AKR 1C3) | kcat (AKR 1C3) | Km (AKR 1C4) | kcat (AKR 1C4) | SMILES | Km (human AKR 1B10) | kcat (human AKR 1B10) | further results
1 | hardly reduced | hardly reduced | 26 µM | 2 µM | 12 mU/mg | 6 to 8 µM | hardly reduced | 30 µM | 2.6 µM | 0.045 s⁻¹ | 4.7 µM | 0.0183 s⁻¹ | CC(C)=CCCC(C)=CCCC(C)=CC=O [FAL, farnesal] | 2.5 µM | 0.383 s⁻¹ | Km (AKR 1C1; [10]): 3.1 µM; kcat (AKR 1C1; [10]): 0.0283 s⁻¹; Km (AKR 1A1; [10]): 60 µM; kcat (AKR 1A1; [10]): 0.217 s⁻¹; Km (AKR 1C2; [10]): 1.1 µM; kcat (AKR 1C2; [10]): 0.03 s⁻¹; Km (human AKR 1B1; [10]): 37 µM; kcat (human AKR 1B1; [10]): 0.45 s⁻¹; Km (AKR1C15 [8]): 5.6 µM
2 | hardly reduced | hardly reduced | 2.1 µM | 0.7 µM | 4.2 mU/mg | 0.2 to 0.5 µM | hardly reduced | 3.9 µM | 0.3 µM | 0.06 s⁻¹ | 1.1 µM | 0.0147 s⁻¹ | CC(C)=CCC/C(C)=C/CC/C(C)=C/CC/C(C)=C/C=O [GGAL, geranylgeranial] | 0.9 µM | 0.125 s⁻¹ | kcat (value in parenthesis) (AKR 1C1; [11]): (0.3) ^b min^−1; kcat (value in parenthesis) (AKR 1A1; [11]): (0.8) ^b min^−1; kcat (value in parenthesis) (AKR 1C2; [11]): (0.4) ^b min^−1; Km (AKR1C15 [9]): 0.2 µM; kcat (value in parenthesis) (human AKR 1B1; [11]): (0.3) ^b min^−1; kcat/Km value relative to that for prostaglandin D2 (AKR 1C3; higher than for prostaglandin D2, best known endogenous substrate): 12 fold
